# Assay results as given in ChEMBL document CHEMBL5236634, “Membrane-Targeting Neolignan-Antimicrobial Peptide Mimic Conjugates to Combat Methicillin-Resistant Staphylococcus aureus (MRSA) Infections” (J Med Chem, 2022).
# Active and inactive are the calls of the source. The rule behind the calls is not given here.
# Columns and labels:
# [1] = Toxicity in BALB/c mouse assessed as pathological changes in spleen at 50 mg/kg, ip administered as single dose and measured after 24 hrs by H & E staining based analysis; format: organism-based; conditions: in vivo
# [2] = system: L02; assay: Cytotoxicity against human L02 cells assessed as effect on cell morphology at 2.5 to 80 ug/ml incubated for 24 hrs by Hoechst 33342 and propidium iodide staining based fluorescence microscopic analysis; format: toxicity; conditions: l02, 24 h, dose 2.5-80 µg/ml
# [3] = system: Enterococcus faecalis; assay: Antibacterial activity against Enterococcus faecalis ATCC 29212 assessed as inhibition of bacterial growth incubated for 16 to 20 hrs by CLSI based microdilution method; format: functional; conditions: time 16-20 hrs
# [4] = system: Staphylococcus aureus; assay: Antibacterial activity against methicillin-resistant Staphylococcus aureus 15 infected in BALB/c mouse sepsis model assessed as reduction in bacterial load in spleen at 10 mg/kg, ip measured after 48 hrs; format: functional, organism-based
# [5] = Toxicity in BALB/c mouse assessed as effect on RBC count at 50 mg/kg, ip administered as single dose and measured after 24 hrs; format: organism-based, Erythrocyte; conditions: in vivo
# [6] = system: L02; assay: Cytotoxicity against human L02 cells assessed as reduction in cell viability at 2.5 to 80 ug/ml incubated for 24 hrs by CCK-8 assay; format: toxicity, cell-based; conditions: l02, 24 h, dose 2.5-80 µg/ml
# [7] = system: Cell membrane; assay: Induction of cell membrane disruption in methicillin-resistant Staphylococcus aureus 15 assessed as protein leakage at 1 to 6 times MIC incubated for 1 to 2 hrs; format: subcellular; conditions: time 1-2 hrs
# [8] = Toxicity in BALB/c mouse assessed as effect on creatinine level at 50 mg/kg, ip administered as single dose and measured after 24 hrs; format: organism-based; conditions: in vivo
# [9] = system: Cell membrane; assay: Disruption of membrane integrity in methicillin-resistant Staphylococcus aureus 15 at 32 ug/ml by SEM analysis; format: subcellular; conditions: dose 32.0 µg/ml
# [10] = system: Staphylococcus aureus; assay: Antibacterial activity against methicillin-resistant Staphylococcus aureus 15 incubated for 16 to 18 hrs in presence of phosphatidylglycerol by checkerboard microdilution assay; format: functional, organism-based; conditions: time 16-18 hrs
# [11] = system: Staphylococcus aureus; assay: Antibacterial activity against methicillin-resistant Staphylococcus aureus 15 incubated for 16 to 18 hrs in presence of peptidoglycan by checkerboard microdilution assay; format: functional, organism-based; conditions: time 16-18 hrs
# [12] = system: Staphylococcus aureus; assay: Antibacterial activity against methicillin-resistant Staphylococcus aureus 15 infected in BALB/c mouse sepsis model assessed as reduction in bacterial load in liver at 10 mg/kg, ip measured after 48 hrs; format: functional, organism-based
# [13] = Toxicity in BALB/c mouse assessed as pathological changes in liver at 50 mg/kg, ip administered as single dose and measured after 24 hrs by H & E staining based analysis; format: organism-based; conditions: in vivo
# [14] = system: Staphylococcus aureus; assay: Antibacterial activity against Staphylococcus aureus ATCC 29213 assessed as inhibition of bacterial growth incubated for 16 to 20 hrs by CLSI based microdilution method; format: functional; conditions: time 16-20 hrs
# [15] = system: Staphylococcus aureus; assay: Inhibition of biofilm formation in methicillin-resistant Staphylococcus aureus 15 at 64 ug/ml incubated for 24 hrs by crystalline violet staining based analysis; format: functional
# [16] = Toxicity in BALB/c mouse assessed as effect on platelet count at 50 mg/kg, ip administered as single dose and measured after 24 hrs; format: organism-based; conditions: in vivo
# [17] = system: Staphylococcus aureus; assay: Induction of ROS production in methicillin-resistant Staphylococcus aureus 15 assessed as accumulation of intracellular ROS incubated for 30 mins by DCFH-DA staining based fluorescence assay; format: functional, organism-based; conditions: dose 2-64 µg/ml
# [18] = system: Cell membrane; assay: Induction of membrane depolarization in methicillin-resistant Staphylococcus aureus 15 assessed as increase in fluorescence intensity at 32 ug/ml by DiSC3-5 dye based fluorescence method; format: subcellular; conditions: dose 32.0 µg/ml
# [19] = system: Staphylococcus aureus; assay: Upregulation of SPI gene expression in methicillin-resistant Staphylococcus aureus 15 assessed as log2 of fold change in gene expression at 8 ug/ml incubated for 6 hrs by transcriptome analysis; format: functional; conditions: dose 8 µg/ml
# [20] = system: Staphylococcus aureus; assay: Upregulation of rplJ gene expression in methicillin-resistant Staphylococcus aureus 15 assessed as log2 of fold change in gene expression at 8 ug/ml incubated for 6 hrs by transcriptome analysis; format: functional; conditions: dose 8 µg/ml
# [21] = system: Staphylococcus aureus; assay: Downregulation of pgaC gene expression in methicillin-resistant Staphylococcus aureus 15 assessed as fold change in gene expression at 8 ug/ml incubated for 6 hrs by transcriptome analysis; format: functional; conditions: dose 8 µg/ml
# [22] = Binding affinity to methicillin-resistant Staphylococcus aureus 15 cardiolipin assessed as dissociation constant by ITC method
# [23] = Binding affinity to methicillin-resistant Staphylococcus aureus 15 phosphatidylglycerol assessed as dissociation constant by ITC method
# [24] = system: Staphylococcus aureus; assay: Upregulation of YidC gene expression in methicillin-resistant Staphylococcus aureus 15 assessed as log2 of fold change in gene expression at 8 ug/ml incubated for 6 hrs by transcriptome analysis; format: functional; conditions: dose 8 µg/ml
Compound,Activity [1],Activity [2],MIC [3],Activity [4],Activity [5],Activity [6],Activity [7],Activity [8],Activity [9],Activity [10],Activity [11],Activity [12],Activity [13],MIC [14],inhibition at 64 µg/mL [15],Activity [16],Activity [17],Activity [18],also measured
C=CCc1cccc(Oc2ccc(C(=O)CC)cc2)c1OCC[N+](C)(C)CC(=O)NCCCCCC.[Br-],Non-Toxic,Non-Toxic,2 µg/mL,Active,Non-Toxic,Non-Toxic,Active,Non-Toxic,Active,inactive,Active,Active,Non-Toxic,2 µg/mL,100%,Non-Toxic,Dose-Dependent Effect,Active,–
C=CCc1cccc(Oc2ccc(C(=O)CC)cc2)c1OCCC[N+](C)(C)CC(=O)NCCCCCC.[Br-],Non-Toxic,Non-Toxic,2 µg/mL,Active,Non-Toxic,Non-Toxic,Active,Non-Toxic,Active,inactive,Active,Active,Non-Toxic,2 µg/mL,100%,Non-Toxic,Dose-Dependent Effect,Active,log2FC [19]: 1.96; log2FC [20]: 1.8; log2FC [21]: -2.8; Kd [22]: 1.33 µM; Kd [23]: 3.43 µM; log2FC [24]: 1.27
